Key:
[1] = target: DNA sequence (GAAAGTG C GAAAGTG C GAAAGTG C: SEQ ID No: 28); experiment: Binding to target DNA sequence, Octet K2; details: Octet K2, 10 to 320 nM, binding and dissociation 60 seconds each, biotin-labeled target sequence
Description: (§1) In order to verify the cytotoxic activity of IRF-PIPA 3, dsDNA concentration (left view in the figure) and LDH concentration (right view in the figure) in the culture supernatant were measured. The same experiment as that in FIG. 2 was carried out, and the culture supernatant was recovered. A lysate obtained by mixing 2.5×10^5 peritoneal macrophages with 90 μL of 10% FBS-RPMI or D-MEM medium and 10 μL of Lysis Buffer, and then disrupting the cells, was used as a positive control. […] Using Octet K2, the binding of each concentration of IRF-PIPA 3 shown in the figure and a target DNA sequence was analyzed. After mixing a PIPA solution with target DNA, the binding of the two substances was measured for 60 seconds. […] From changes in the binding and dissociation at each concentration over time, a Kd value was calculated as a dissociation constant indicating a binding force. The analysis was performed using Octet K2 (ForteBio) according to standard protocols. A streptavidin-conjugated sensor (ForteBio) was used, and a biotin-labeled target sequence (FASMAC) was allowed to bind to the sensor. Further, according to standard protocols, the binding of 10 to 320 nM IRF-PIPA 3 and the target sequence, and dissociation thereof were analyzed for 60 seconds each.

IFN-β, IL-6 and TNF-α [2] = experiment: In vivo cytokine protein concentration in plasma after Poly(I:C) (ELISA); parameters: species or system mice
Description: […] Two hours after the administration of Poly(I:C), blood was collected, and individual protein concentrations of IFN-β, IL-6 and TNF-α in the plasma were then measured by an ELISA method.
(§2) 2×10^4 Raw264.7 cells were seeded on a plate, and were then treated with IRF-PIPA 1, IRF-PIPA 2, IRF-PIPA 3 or IRF-PIPA 4 for 24 hours. Thereafter, the cells were stimulated with LPS (Lipopolysaccharide, SIGMA-ALDRICH) for 16 hours, and the culture supernatant was then recovered. The concentration of cytokine in the culture supernatant was measured using ELISA kit (R&D SYSTEMS) according to the standard protocols. The culture supernatant was diluted with 1% BSA-PBS, as necessary, and was then analyzed. 2.5×10^5 Mouse peritoneal macrophages were seeded on a plate, and were then treated with IRF-PIPA 3 for 16 or 24 hours. Thereafter, the cells were stimulated with Poly(I:C) (InvivoGen) for 16 hours or with mRNA vaccine (Moderna) for 20 to 24 hours, and the culture supernatant was then recovered. The concentration of cytokine in the culture supernatant was measured using ELISA kit (R&D SYSTEMS) according to the same standard protocols. On the other hand, the concentration of cytokine in mouse plasma was measured by administering 400 μg/mouse IRF-PIPA 3 into the abdominal cavity of wild-type mice, then administering 250 μg of Poly(I:C) into the same abdominal cavity 24 hours after the IRF-PIPA 3 administration, then collecting blood further 2 hours after the Poly(I:C) administration, and then measuring the cytokine concentration in the plasma using ELISA kit (R&D SYSTEMS) according to standard protocols.

IFN-β, IL-6 and TNF-α [3] = experiment: Cytokine concentration in culture supernatant of Poly(I:C)-stimulated peritoneal macrophages (ELISA); format: cell-based, mice; details: 3 or 10 μM 24 h, Poly(I:C) 1 μg/mL 16 h
Description: Peritoneal macrophages were harvested from wild-type mice, and were then seeded on a 96-well plate at a cell density of 2.5×10^5 cells/well, followed by culturing for 2 hours. Thereafter, the cultured cells were washed twice with PBS. Subsequently, IRF-PIPA 3 was suspended in 10% FBS-RPMI or D-MEM to a final concentration of 3 or 10 µM, and was then added to the wells. After completion of the culture for 24 hours, Poly(I:C) was added to the cultured cells to a final concentration of 1 μg/mL, and the obtained mixture was then cultured for 16 hours. The supernatant was recovered, and the concentrations of IFN-β, IL-6, and TNF-α were then measured by ELISA.
Mouse peritoneal macrophages were harvested from 6-week-old CL57B/6 mice (CLEA Japan, Inc.) by peritoneal lavage using 7 mL of PBS (Nacalai Tesque), and the cells adhered to the culture plate by culture for 2 hours were used in experiments. The culture was carried out using an RPMI or D-MEM medium (Nacalai Tesque) containing 10% FBS (SIGMA-ALDRICH) and Penicillin-Streptomycin mixed solution (Nacalai Tesque). The CL57B/6 mice were bred in an SPF environment.
as §2, with “Thereafter, the cells were stimulated with LPS (Lipopolysaccharide, SIGMA-ALDRICH) for 16 hours, and the culture supernatant was then recovered.” left out, “2.5×10^5 Mouse peritoneal macrophages were seeded on a plate, and were then treated with IRF-PIPA 3 for 16 or 24 hours. Thereafter, the cells were stimulated with Poly(I:C) (InvivoGen) for 16 hours or with mRNA vaccine (Moderna) for 20 to 24 hours, and the culture supernatant was then recovered.” left out

peritoneal macrophages = experiment: Cytotoxic activity: dsDNA concentration and LDH activity in culture supernatant; format: cell-based, mice
Description: as §1, with “force.” for “force. The analysis was performed using Octet K2 (ForteBio) according to standard protocols. A streptavidin-conjugated sensor (ForteBio) was used, and a biotin-labeled target sequence (FASMAC) was allowed to bind to the sensor. Further, according to standard protocols, the binding of 10 to 320 nM IRF-PIPA 3 and the target sequence, and dissociation thereof were analyzed for 60 seconds each.”
The concentration of dsDNA in the culture supernatant was measured using Nano drop one (Thermo Fisher SCIENTIFIC). In LDH assay, LDH activity was measured using Cytotoxicity LDH Assay Kit-WST (DOJINDO LABORATORIES) according to standard protocols. As a positive control, a lysate obtained by mixing 2.5×10^5 peritoneal macrophages with 90 μL of 10% FBS-RPMI or D-MEM medium and 10 μL of Lysis Buffer, and then disrupting the cells, was used.

[4] = 400 μg/mouse i.p., Poly(I:C) 250 μg/mouse i.p. 24 hours, 1, 4 or 7 days later, blood 2 h later
[5] = plasma IFN-β, IL-6, TNF-α, Poly(I:C) 1, 4 or 7 days after IRF-PIPA 3
[6] = peritoneal macrophages, same experiment as FIG. 2 (3 or 10 μM)

CC(=O)Nc1cn(C)c(C(=O)Nc2cc(C(=O)NCCC(=O)Nc3cc(C(=O)Nc4cn(C)c(C(=O)NCCC(=O)Nc5cn(C)c(C(=O)NCCCC(=O)Nc6cc(C(=O)Nc7cc(C(=O)Nc8cc(C(=O)NCCC(=O)Nc9cc(C(=O)Nc%10cc(C(=O)NCCC(=O)NCCCN(C)C)n(C)c%10)n(C)c9)n(C)c8)n(C)c7)n(C)c6)n5)n4)n(C)c3)n(C)c2)n1 [IRF-PIPA 3]
Kd [1]: 22.7 nM | IFN-β protein concentration in plasma (IFN-β, IL-6 and TNF-α [2]; [4]): significantly suppressed | IL-6 protein concentration in plasma (IFN-β, IL-6 and TNF-α [2]; [4]): significantly suppressed | TNF-α protein concentration in plasma (IFN-β, IL-6 and TNF-α [2]; [4]): significantly suppressed | time after administration of highest suppressive effect (IFN-β, IL-6 and TNF-α [2]; [5]): 1 days | time after administration until which the suppressive effect was sustained (attenuated) (IFN-β, IL-6 and TNF-α [2]; [5]): ≥ 7 days | suppression of IFN-β production (IFN-β, IL-6 and TNF-α [3]): strongly suppresses IFN-β production in a concentration-dependent manner | suppression of IL-6 (IFN-β, IL-6 and TNF-α [3]): suppressed, although less strongly than IFN-β | suppression of TNF-α (IFN-β, IL-6 and TNF-α [3]): suppressed, although less strongly than IFN-β | cytotoxic activity (peritoneal macrophages; concentration range in which IRF-PIPA 3 shows strong suppressive action): does not exhibit cytotoxic activity | LDH activity in the culture supernatant (peritoneal macrophages; [6]): not increased at all | amount of DNA in the culture supernatant (peritoneal macrophages; [6]): not increased at all
